Details: Liquid, Vibrating tube method

CCCCCCCCCC [decane]
Details	mass density [kg/m3]
313.15 K, 100 kPa	714.75
313.15 K, 1010 kPa	715.53
313.15 K, 2000 kPa	716.4
313.15 K, 3000 kPa	717.27
313.15 K, 4000 kPa	718.14
313.15 K, 5000 kPa	718.99
313.15 K, 6010 kPa	719.78
313.15 K, 7010 kPa	720.66
313.15 K, 7990 kPa	721.48
313.15 K, 9000 kPa	722.28
313.15 K, 10000 kPa	723.08
313.15 K, 11000 kPa	723.91
313.15 K, 12000 kPa	724.66
313.15 K, 13000 kPa	725.42
313.15 K, 14010 kPa	726.18
313.15 K, 15010 kPa	726.93
313.15 K, 16000 kPa	727.61
313.15 K, 17010 kPa	728.38
313.15 K, 18010 kPa	729.1
313.15 K, 19000 kPa	729.81
313.15 K, 20000 kPa	730.51
323.15 K, 100 kPa	706.95
323.15 K, 1000 kPa	707.77
323.15 K, 1990 kPa	708.72
323.15 K, 3000 kPa	709.63
323.15 K, 4000 kPa	710.55
323.15 K, 5010 kPa	711.46
323.15 K, 5990 kPa	712.35
323.15 K, 7000 kPa	713.23
323.15 K, 8010 kPa	714.1
323.15 K, 8990 kPa	714.96
323.15 K, 10010 kPa	715.8
323.15 K, 11000 kPa	716.66
323.15 K, 12010 kPa	717.49
323.15 K, 13010 kPa	718.29
323.15 K, 14000 kPa	719.09
323.15 K, 15010 kPa	719.88
323.15 K, 16010 kPa	720.66
323.15 K, 17010 kPa	721.43
323.15 K, 17990 kPa	722.2
323.15 K, 18990 kPa	722.94
323.15 K, 20010 kPa	723.68
333.15 K, 100 kPa	699.17
333.15 K, 1000 kPa	700.04
333.15 K, 2010 kPa	701.02
333.15 K, 3000 kPa	702.01
333.15 K, 4010 kPa	702.98
333.15 K, 4990 kPa	703.93
333.15 K, 5990 kPa	704.88
333.15 K, 7000 kPa	705.81
333.15 K, 8000 kPa	706.73
333.15 K, 9010 kPa	707.63
333.15 K, 9990 kPa	708.53
333.15 K, 11000 kPa	709.45
333.15 K, 12000 kPa	710.31
333.15 K, 13010 kPa	711.16
333.15 K, 14000 kPa	712.01
333.15 K, 15000 kPa	712.85
333.15 K, 16010 kPa	713.67
333.15 K, 16990 kPa	714.48
333.15 K, 18000 kPa	715.29
333.15 K, 18990 kPa	716.08
333.15 K, 20000 kPa	716.87
343.15 K, 100 kPa	691.44
343.15 K, 1010 kPa	692.33
343.15 K, 2010 kPa	693.38
343.15 K, 2990 kPa	694.42
343.15 K, 4010 kPa	695.45
343.15 K, 4990 kPa	696.46
343.15 K, 6000 kPa	697.46
343.15 K, 7000 kPa	698.44
343.15 K, 8010 kPa	699.41
343.15 K, 8990 kPa	700.37
343.15 K, 10010 kPa	701.31
343.15 K, 11010 kPa	702.25
343.15 K, 12010 kPa	703.17
343.15 K, 13000 kPa	704.08
343.15 K, 14010 kPa	704.97
343.15 K, 15000 kPa	705.86
343.15 K, 16000 kPa	706.73
343.15 K, 17010 kPa	707.59
343.15 K, 18010 kPa	708.44
343.15 K, 18990 kPa	709.28
343.15 K, 19990 kPa	710.1
353.15 K, 100 kPa	683.75
353.15 K, 1010 kPa	684.69
353.15 K, 2000 kPa	685.79
353.15 K, 3010 kPa	686.88
353.15 K, 4010 kPa	687.96
353.15 K, 5010 kPa	689.03
353.15 K, 5990 kPa	690.08
353.15 K, 7000 kPa	691.11
353.15 K, 8000 kPa	692.13
353.15 K, 9000 kPa	693.13
353.15 K, 10000 kPa	694.12
353.15 K, 11010 kPa	695.12
353.15 K, 12000 kPa	696.08
353.15 K, 13000 kPa	697.04
353.15 K, 13990 kPa	697.98
353.15 K, 15000 kPa	698.91
353.15 K, 16000 kPa	699.82
353.15 K, 16990 kPa	700.72
353.15 K, 18010 kPa	701.62
353.15 K, 19000 kPa	702.5
353.15 K, 20000 kPa	703.37
363.15 K, 100 kPa	676.12
363.15 K, 990 kPa	677.1
363.15 K, 2010 kPa	678.26
363.15 K, 3000 kPa	679.41
363.15 K, 3990 kPa	680.54
363.15 K, 5010 kPa	681.66
363.15 K, 5990 kPa	682.76
363.15 K, 7000 kPa	683.84
363.15 K, 8010 kPa	684.91
363.15 K, 9010 kPa	685.97
363.15 K, 10010 kPa	687
363.15 K, 11000 kPa	688.04
363.15 K, 12010 kPa	689.05
363.15 K, 13010 kPa	690.06
363.15 K, 14000 kPa	691.04
363.15 K, 15010 kPa	692.02
363.15 K, 15990 kPa	692.98
363.15 K, 17000 kPa	693.93
363.15 K, 17990 kPa	694.86
363.15 K, 19000 kPa	695.79
363.15 K, 20000 kPa	696.7

Source: the NIST ThermoML archive (doi:10.1021/acs.jced.8b00554)
